Experimental data: patent publication US20060134239A1, “Agents against microorganisms containing patchouli oil, patchouli alcohol and/or the derivatives thereof” (priority 2003, published 2006)

Columns and labels:
Type in all cases: cell-based
[1] = test system: Aspergillus niger (DSM 1988); assay: Sporulation of Aspergillus niger on wort agar plates, patchouli alcohol (Example 2)
Method: Effect of Patchouli Alcohol on the Sporulation of Aspergillus niger
Contamination of the surface of wort agar plates with 100 μl of a germ suspension (10^3 CFU/ml) of Aspergillus niger (DSM 1988). Various quantities of active component (solutions in ethanol, for final concentrations see Table 2) were added to the agar plates beforehand. The plates were incubated for 5 days at 25° C. Sporulation was visually evaluated and the sporulation rate in [%] was determined. […] Sporulation was inhibited with increasing concentrations and was 95% suppressed at 450 μm.

[2] = test system: Aspergillus niger (DSM 1988); assay: Sporulation of Aspergillus niger on wort agar plates with active component in the agar (Example 1); conditions: control series
Method: Effect of Patchouli Oil on the Sporulation of Aspergillus niger
Contamination of the surface of wort agar plates with 100 μl of a germ suspension (10^3 CFU/ml) of Aspergillus niger (DSM 1988). Various quantities of active component (dissolved in ethanol, for final concentrations see Table 1) were added to the agar plates beforehand. The plates were incubated for 3 days at 25° C. Sporulation was visually evaluated and the sporulation rate in [%] was determined.
Active component: patchouli oil obtained by steam distillation (mixture of patchouli oil from Kaders, Sensient, Polarome and Nitsche)

[3] = test system: Aspergillus niger, DSM 1988; assay: Sporulation of Aspergillus niger on the surface of an acetate silicone jointing compound (Example 3); conditions: for Sporulation [%]: control series
Method: Effect on Patchouli Oil on the Sporulation of Aspergillus niger on the Surface of an Acetate Jointing Compound
Commercially available, but preservative-free, one-component silicone jointing compounds curing at room temperature (acetate system, cured 2.2×2.2×0.3 cm pieces of film) were disinfected with 70% EtOH (ethanol) and placed for 24 h in active component solutions with various concentrations. The test specimens were then re-washed twice with EtOH, rinsed with distilled water (sterile) and dried for 24 h. The test specimens were weighed before and after this treatment and the quantity of active component in the test specimens was thus determined together with the concentration of the active component solution. The test specimens were then placed on wort agar plates and thinly coated with agar in which fungal spores had been incorporated (10^5 CFU/ml Aspergillus niger, DSM 1988). The plates were incubated for 3 days at 25° C. Sporulation was visually evaluated from the test specimens and the sporulation rate in [%] was determined.

[4] = test system: Aspergillus niger (DSM 1988); assay: Sporulation of Aspergillus niger on a filter surface after 2 applications (Example 4); conditions: for Sporulation [%]: 3 days at 25° C.
Method: Effect of Patchouli Oil on the Sporulation of Aspergillus niger on a Filter Surface after 2 Applications
Filter papers (2×2 cm) were disinfected and treated twice with a 1 hour interval with 50 μl of active-component solutions (in ethanol) differing in concentration. The test specimens were then dried. The test specimens were then placed on wort agar plates and the surface of the wort agar plates was contaminated with 100 μl of a germ suspension (10^3 CFU/ml) of Aspergillus niger (DSM 1988). The plates were incubated for 3 days at 25° C. Sporulation was visually evaluated and the sporulation rate in [%] was determined. […] Sporulation was inhibited by increasing concentrations of eugenol and was 95% suppressed at 90 μm.

C[C@H]1CC[C@@]2(O)C(C)(C)[C@@H]3CC[C@@]2(C)[C@H]1C3 [patchouli alcohol, Patchouli alcohol]
Inhibition of growth of the test strain ([1]; all concentrations used (up to 450 μm)): None of the active component concentrations used inhibited the growth
Suppression of sporulation ([1]; at 450 μm, 5 days at 25° C.): 95%
Sporulation [%] ([1]; concentration 225 μm in wort agar, 5 days at 25° C.): 95%
Sporulation [%] ([1]; concentration 450 μm in wort agar, 5 days at 25° C.): 5%

CC(C)=CCCC(C)=CCCC(C)=CCO [farnesol]
Sporulation [%] ([2]; concentration 25 μm in wort agar): 90%
Sporulation [%] ([2]; concentration 62.5 μm in wort agar): 75%
Sporulation [%] ([2]; concentration 125 μm in wort agar): 50%
Sporulation [%] ([2]; concentration 250 μm in wort agar): 10%
Sporulation [%] ([2]; concentration 500 μm in wort agar): 0%
Sporulation [%] ([3]; 0.4 μm/g jointing compound): 100%
Sporulation [%] ([3]; 1.1 μm/g jointing compound): 100%
Sporulation [%] ([3]; 17 μm/g jointing compound): 30%
Inhibition of sporulation compared with identical concentrations of patchouli oil ([3]; parallel test series on jointing compound): inhibited, but to a far lesser extent
Inhibition of sporulation compared with identical concentrations of patchouli oil ([4]; second, parallel test series on filter paper): inhibited, but to a lesser extent
Sporulation [%] ([4]; solution concentration 0.5 μm, filter paper treated twice with 50 μl): 100%
Sporulation [%] ([4]; solution concentration 5 μm, filter paper treated twice): 100%
Sporulation [%] ([4]; solution concentration 25 μm, filter paper treated twice): 100%
Sporulation [%] ([4]; solution concentration 35 μm, filter paper treated twice): 60%
Sporulation [%] ([4]; solution concentration 50 μm, filter paper treated twice): 80%
Sporulation [%] ([4]; solution concentration 70 μm, filter paper treated twice): 50%
Sporulation [%] ([4]; solution concentration 90 μm, filter paper treated twice): 40%

C=CCc1ccc(O)c(OC)c1 [eugenol]
Suppression of sporulation ([3]; at 9 μm/g jointing compound): completely suppressed
Suppression of sporulation ([4]; at 90 μm): 95%
